Results published in US4851440A, “Leukotriene antagonists, processes for the preparation thereof, the use thereof for the treatment of diseases, and precursors” (Hoechst Aktiengesellschaft, priority 1987, dated 1989).
Values after ≈ are worked out from the molar mass of the structure shown.

What was measured:
Format in all cases: cell-based
LTC4 = assay: Inhibition of the LTC4-induced contraction of strips of guinea pig lung; settings: Cavia porcellus; LTC4 3 ng/ml of bath liquid; lung strips pretreated with indomethacin (10^-6 g/ml); substance added at maximum contraction plateau; 37° C.; read-out: IC50 versus LTC4
Description: (§1) The leukotriene-antagonistic action of the substances of the general formula I according to the invention is determined by the inhibition of the leukotriene-induced contraction of strips of guinea pig lung. The method which is used is a modification of the tests described by Foreman, Shelly and Weber (Arch. Int. Pharmacodyn. 278, 193-206 (1985)).
(§2) Guinea pigs are sacrificed by an overdose of ether. The thoracic cavity is opened; the lungs are removed and cut into strips 5 cm long, which are stored in physiological saline. For the measurement, the strips of lung are placed in an organ bath filled with Ringer's solution which is equilibrated at 37° C. and through which carbogen (O2 /CO2 95:5 parts by volume) is passed. The strips are left to equilibrate under a load of 0.5-1 g for 30-60 minutes. The strips of lung are pretreated with indomethacin (10^-6 g/ml of bath liquid) before the test starts.
(§3) The contraction is induced by adding LTC4, LTD4 or LTE4 in a concentration of 3 ng/ml of bath liquid. The test substances are administered therapeutically into the bath, after the maximum contraction plateau has been reached, in several concentrations and at time intervals of 10 minutes. 6-12 strips of lung are used for each concentration of the test substances.
(§4) The concentrations of the test substances at which the contraction is reduced by 50% (IC50) are indicated in μg/ml.

LTE4 = assay: Inhibition of the LTE4-induced contraction of strips of guinea pig lung; settings: Cavia porcellus; LTE4 3 ng/ml of bath liquid; lung strips pretreated with indomethacin (10^-6 g/ml); substance added at maximum contraction plateau; 37° C.; read-out: IC50 versus LTE4
Description: as §1, §2, §3, §4

LTD4 = assay: Inhibition of the LTD4-induced contraction of strips of guinea pig lung; settings: Cavia porcellus; LTD4 3 ng/ml of bath liquid; lung strips pretreated with indomethacin (10^-6 g/ml); substance added at maximum contraction plateau; 37° C.; read-out: IC50 versus LTD4
Description: as §1, §2, §3, §4

Row | Compound | IC50 (LTC4) [µg/mL] | IC50 (LTE4) [µg/mL] | IC50 (LTD4) [µg/mL]
1 | COC(=O)COC[C@@H](O)[C@@H](Sc1cccc(OC)c1)c1ccccc1 (racemic) [Compound A, Methyl (5RS,6SR)-5-hydroxy-6-(3-methoxyphenylthio)-6-phenyl-3-oxahexanoate] | 0.6 (≈ 1.66 µM) | 1 (≈ 2.76 µM) | 0.3 (≈ 0.828 µM)
2 | COC(=O)CSC[C@@H](O)[C@@H](Sc1cccc(OC)c1)c1ccccc1 (racemic) [Compound B, Methyl (5RS,6SR)-5-hydroxy-6-(3-methoxyphenylthio)-6-phenyl-3-thiahexanoate] | 0.6 to 1 (≈ 1.59 to 2.64 µM) | 1 (≈ 2.64 µM) | 0.6 (≈ 1.59 µM)
3 | COC(=O)CSC[C@H](O)[C@H](Sc1cccc(OC)c1)c1ccccc1 [Compound C, Methyl (5 S,6 R)(-)-5-hydroxy-6-(3-methoxyphenylthio)-6-phenyl-3-thiahexanoate] | 0.3 to 0.6 (≈ 0.793 to 1.59 µM) | 0.3 to 0.6 (≈ 0.793 to 1.59 µM) | 0.1 (≈ 0.264 µM)

Second part, the compound after the results:

Row | IC50 (LTC4) [µg/mL] | IC50 (LTE4) [µg/mL] | IC50 (LTD4) [µg/mL] | Compound
4 | > 10 | > 10 | 0.5 (≈ 1.68 µM) | CCCS[C@@H](c1ccccc1)[C@H](O)COCC(=O)OC (racemic) [Compound D, Methyl (5RS,6SR)-5-hydroxy-6-phenyl-3-oxa-7-thiadecanoate]
5 | 6 (≈ 19.1 µM) | 6 to 10 (≈ 19.1 to 31.8 µM) | 0.6 to 1 (≈ 1.91 to 3.18 µM) | CCCS[C@@H](c1ccccc1)[C@H](O)CSCC(=O)OC (racemic) [Compound E, Methyl (5RS,6SR)-5-hydroxy-6-phenyl-3,7-dithiadecanoate]
